Data from US20240067631A1, “PYRAZOLE DERIVATIVES USEFUL AS NAMPT MODULATORS” (Cytokinetics, Inc., priority 2020, published 2024).

Molecular target: human NAMPT (Homo sapiens (Human), UniProt P43490)
Assay: Human recombinant enzyme assay (NMN fluorescence biochemical assay)
Conditions: 6 nM human NAMPT, 60 min; for AC1.4 Human: concentration of compound that generates 40% higher activity over basal; for EC50: concentration that gives half-maximal activation
Protocol: Compounds described herein were assayed for their ability to stimulate the synthesis of nicotinamide mononucleotide (NMN) by the enzyme NAMPT. The human recombinant enzyme assay measures the activation of the enzyme activity by compounds using recombinant enzyme and substrates in a buffered cell-free system. The assay conditions closely mimic cellular environments. Dose responses were measured using an assay to detect the formation of nicotinamide mono-nucleotide. All experiments were performed in the 384-well format. Generally, 0.5 μL of DMSO containing varying concentrations of the test compound was mixed with 10 μL of the enzyme reagent solution. Enzyme reactions were initiated with the addition of 10 μL of a solution containing the substrates. The final assay conditions were as follows: 6 nM human NAMPT, 2.5 mM ATP, […] in 50 mM HEPES, pH 7.2, 1 mM DTT, 1 mM CHAPS 50 mM NaCl, 100 mM MgCl2. Following an incubation of 60 min at ambient temperature, 10 μL of 20% acetophenone in DMSO was added, followed by 10 μL of 2 M KOH and 40 μL of formic acid. The plates were read for fluorescence (Excitation/Emission=355 nm/460 nm) using an EnVision plate reader after 40 mins of incubation at ambient temperature. The potency measurements for compounds, are quantified and represented as AC1.4 (the concentration of compounds that generates 40% higher activity over basal) and EC50 (concentration of the compound that gives half-maximal activation).

Sequence of human NAMPT (P43490 whole entry): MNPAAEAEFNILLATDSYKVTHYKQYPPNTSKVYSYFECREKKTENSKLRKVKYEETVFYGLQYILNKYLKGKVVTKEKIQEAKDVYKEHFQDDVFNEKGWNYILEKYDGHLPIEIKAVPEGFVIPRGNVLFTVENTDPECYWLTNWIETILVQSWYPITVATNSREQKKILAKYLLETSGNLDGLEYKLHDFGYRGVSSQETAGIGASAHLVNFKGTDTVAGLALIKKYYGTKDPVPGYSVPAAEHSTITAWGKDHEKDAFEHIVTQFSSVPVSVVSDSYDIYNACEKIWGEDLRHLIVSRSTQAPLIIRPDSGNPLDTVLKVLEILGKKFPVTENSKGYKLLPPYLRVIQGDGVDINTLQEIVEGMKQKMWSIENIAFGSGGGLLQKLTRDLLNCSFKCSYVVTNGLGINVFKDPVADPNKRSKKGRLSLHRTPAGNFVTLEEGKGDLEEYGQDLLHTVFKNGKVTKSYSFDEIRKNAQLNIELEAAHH

Row | Structure (SMILES) | AC1.4 Human [µM] | EC50 [µM]
1 | Cc1nc(C(=O)N2CCC[C@@H]2c2ccccc2F)nc(NCCc2cn[nH]c2)c1C [Compound 54, (R)-(4-((2-(1H-pyrazol-4-yl)ethyl)amino)-5,6-dimethylpyrimidin-2-yl)(2-(2-fluorophenyl)pyrrolidin-1-yl)methanone] | 0.35 | 2.37
2 | Cc1nc(C(=O)N2CC(c3ccccc3)C2)nc(NCCc2cn[nH]c2)c1C [Compound 76, (4-((2-(1H-pyrazol-4-yl)ethyl)amino)-5,6-dimethylpyrimidin-2-yl)(3-phenylazetidin-1-yl)methanone] | 0.773 | 6.83
3 | Cc1nc(C(=O)N2CCC[C@@H]2c2ccc(F)cc2)nc(NCCc2cn[nH]c2)c1C [Compound 86, (R)-(4-((2-(1H-pyrazol-4-yl)ethyl)amino)-5,6-dimethylpyrimidin-2-yl)(2-(4-flurophenyl)pyrrolidin-1-yl)methanone] | 1.1115 | 8.04
4 | Cc1nc(C(=O)N2CC(O)(Cc3ccccc3)C2)nc(NCCc2cn[nH]c2)c1C [Compound 60] | 0.4085 | 3.75
5 | COC[C@H](NC(=O)c1nc(C)c(C)c(NCCc2cn[nH]c2)n1)c1cccc(F)c1 [Compound 49, (R)-4-((2-(1H-pyrazol-4-yl)ethyl)amino)-N-(1-(3-fluorophenyl)-2-methoxyethyl)-5,6-dimethylpyrimidine-2-carboxamide] | 0.3055 | 2.1
6 | Cc1nc(C(=O)N(C)[C@H](C)c2ccccc2Cl)nc(NCCc2cn[nH]c2)c1C [Compound 53, (R)-4-((2-(1H-pyrazol-4-yl)ethyl)amino)-N-(1-(2-chlorophenyl)ethyl)-N,5,6-trimethylpyrimidine-2-carboxamide] | 0.3335 | 2.6
7 | Cc1nc(C(=O)N2CCCC2Cc2ccccc2)nc(NCCc2cn[nH]c2)c1C (centres unmarked) [Compound 71, (4-((2-(1H-pyrazol-4-yl)ethyl)amino)-5,6-dimethylpyrimidin-2-yl)(2-benzylpyrrolidin-1-yl)methanone] | 0.5835 | 6.07
8 | Cc1nc(C(=O)N2CC(O)(c3cccc(F)c3)C2)nc(NCCc2cn[nH]c2)c1C [Compound 3, (4-((2-(1H-pyrazol-4-yl)ethyl)amino)-5,6-dimethylpyrimidin-2-yl)(3-(3-fluorophenyl)-3-hydroxyazetidin-1-yl)methanone] | 0.0165 | 0.653
9 | Cc1nc(C(=O)N2CCC[C@@H]2c2ccccc2)nc(NCCc2cn[nH]c2)c1C [Compound 38, (R)-(4-((2-(1H-pyrazol-4-yl)ethyl)amino)-5,6-dimethylpyrimidin-2-yl)(2-phenylpyrrolidin-1-yl)methanone] | 0.1635 | 3.83
10 | Cc1nc(C(=O)N2CCOC[C@@H]2Cc2ccccc2)nc(NCCc2cn[nH]c2)c1C [Compound 72, (S)-(4-((2-(1H-pyrazol-4-yl)ethyl)amino)-5,6-dimethylpyrimidin-2-yl)(3-benzylmorpholino)methanone] | 0.625 | 3.53

The next lines start with the values.

Row | AC1.4 Human [µM] | EC50 [µM] | Structure (SMILES)
11 | 0.9345 | 7.76 | Cc1nc(C(=O)N2CC(F)(F)C2)nc(NCCc2cn[nH]c2)c1C [Compound 91, (4-((2-(1H-pyrazol-4-yl)ethyl)amino)-5,6-dimethylpyrimidin-2-yl)(3,3-difluoroazetidin-1-yl)methanone]
12 | 2.7 | – | C[C@@H](NC(=O)c1nc2c(c(NCCc3cn[nH]c3)n1)CCC2)c1cccc(F)n1 [Compound 146, (R)-4-((2-(1H-pyrazol-4-yl)ethyl)amino)-N-(1-(6-fluoropyridin-2-yl)ethyl)-6,7-dihydro-5H-cyclopenta[d] pyrimidine-2-carboxamide]
13 | 1.1995 | 5.68 | COCC(c1ccc(F)cc1)N(C)C(=O)c1nc(C)c(C)c(NCCc2cn[nH]c2)n1 (centres unmarked) [Compound 92, 4-((2-(1H-pyrazol-4-yl)ethyl)amino)-N-(1-(4-fluorophenyl)-2-methoxyethyl)-N,5,6-trimethylpyrimidine-2-carboxamide]
14 | >31 | – | Cc1nc(C(=O)N2CCC[C@@H]2c2cccc(F)c2)nc(NCCc2cn[nH]c2)c1Cl [Compound 148, (R)-(4-((2-(1H-pyrazol-4-yl)ethyl)amino)-5-chloro-6-methylpyrimidin-2-yl)(2-(3-fluorophenyl)pyrrolidin-1-yl)methanone]
15 | 3.7335 | 17.5 | Cc1nc(C(=O)N[C@H]2C[C@@H](c3ccccc3)C2)nc(NCCc2cn[nH]c2)c1C [Compound 135, 4-((2-(1H-pyrazol-4-yl)ethyl)amino)-5,6-dimethyl-N-((1s,3s)-3-phenylcyclobutyl)pyrimidine-2-carboxamide]
16 | 4.755 | 18.4 | Cc1nc(C(=O)Nc2ccncc2F)nc(NCCc2cn[nH]c2)c1C [Compound 144, 4-((2-(1H-pyrazol-4-yl)ethyl)amino)-N-(3-fluoropyridin-4-yl)-5,6-dimethylpyrimidine-2-carboxamide]
17 | 3.1455 | 13.4 | Cc1nc(C(=O)N2CCC[C@@H]2c2ccccn2)nc(NCCc2cn[nH]c2)c1C [Compound 126, (R)-(4-((2-(1H-pyrazol-4-yl)ethyl)amino)-5,6-dimethylpyrimidin-2-yl)(2-(pyridin-2-yl)pyrrolidin-1-yl)methanone]
18 | 1.9815 | 16.2 | Cc1nc(C(=O)NC(C)c2ccncc2F)nc(NCCc2cn[nH]c2)c1C (centres unmarked) [Compound 110, 4-((2-(1H-pyrazol-4-yl)ethyl)amino)-N-(1-(3-fluoropyridin-4-yl)ethyl)-5,6-dimethylpyrimidine-2-carboxamide]
19 | 2.443 | 15.2 | Cc1nc(C(=O)NCc2ncccc2F)nc(NCCc2cn[nH]c2)c1C [Compound 120, 4-((2-(1H-pyrazol-4-yl)ethyl)amino)-N-((3-fluoropyridin-2-yl)methyl)-5,6-dimethylpyrimidine-2-carboxamide]
20 | 3.2975 | 41 | Cc1ccc(C(C)NC(=O)c2nc(C)c(C)c(NCCc3cn[nH]c3)n2)s1 (centres unmarked) [Compound 130, 4-((2-(1H-pyrazol-4-yl)ethyl)amino)-5,6-dimethyl-N-(1-(5-methylthiophen-2-yl)ethyl)pyrimidine-2-carboxamide]
21 | 2.574 | 16.7 | Cc1nc(C(=O)NCC(O)(c2ccccc2)C(F)(F)F)nc(NCCc2cn[nH]c2)c1C (centres unmarked) [Compound 122, 4-((2-(1H-pyrazol-4-yl)ethyl)amino)-5,6-dimethyl-N-(3,3,3-trifluoro-2-hydroxy-2-phenylpropyl)pyrimidine-2-carboxamide]
22 | 3.5315 | 28.9 | Cc1nc(C(=O)NCc2ccncc2)nc(NCCc2cn[nH]c2)c1C [Compound 133, 4-((2-(1H-pyrazol-4-yl)ethyl)amino)-5,6-dimethyl-N-(pyridin-4-ylmethyl)pyrimidine-2-carboxamide]
23 | 1.7855 | 18.1 | Cc1nc(C(=O)NC(C)c2ncco2)nc(NCCc2cn[nH]c2)c1C (centres unmarked) [Compound 108, 4-((2-(1H-pyrazol-4-yl)ethyl)amino)-5,6-dimethyl-N-(1-(oxazol-2-yl)ethyl)pyrimidine-2-carboxamide]
